# Results reported in ChEMBL document CHEMBL3885861, “Open TG-GATES”.
# Species on record: Rattus norvegicus
# Test: Open TG-GATES - Regimen: Single
# Assay type: toxicity, organism-based, Sprague-Dawley
# Parameters: regimen Single, gender Male, age 6 weeks
# Conditions: in vivo, po, route gavage; for gamma-GTP / ALP / ALT / AST / BUN / Ca / Cl / DBIL / GLC / IP / K / LDH / Na / PL / RALB / TBIL / TC / TP / CRE: tissue Plasma; for APTT / Bas / Eos / Fbg / Hb / Ht / Lym / MCH / MCHC / MCV / Mono / Neu / PT / Plat / RBC / Ret / WBC: tissue Blood; for KIDNEY_L / KIDNEY_R / KIDNEY_TOTAL: tissue Kidney; for LIVER: tissue Liver
# [1] = 15 mg/kg, 24 h, dose level High
# [2] = 50 mg/kg, 3 h, dose level Middle
# [3] = 50 mg/kg, 6 h, dose level Middle
smiles,measurement,setting,value
O=P1(N(CCCl)CCCl)NCCCO1 (stereo unspecified) [CYCLOPHOSPHAMIDE ANHYDROUS],gamma-GTP,"15 mg/kg, 9 h, dose level High",1 IU/L
same,ALP,"15 mg/kg, 9 h, dose level Low",1388.6 IU/L
same,ALT,"15 mg/kg, 9 h, dose level Low",31.2 IU/L
same,AST,"15 mg/kg, 9 h, dose level Low",67.6 IU/L
same,BUN,"15 mg/kg, 9 h, dose level Low",8.2 mg/dL
same,Ca,"15 mg/kg, 9 h, dose level Low",10.6 mg/dL
same,Cl,"15 mg/kg, 9 h, dose level Low",106.6 meq/L
same,DBIL,"15 mg/kg, 9 h, dose level Low",0.012 mg/dL
same,GLC,"15 mg/kg, 9 h, dose level Low",163.8 mg/dL
same,IP,"15 mg/kg, 9 h, dose level Low",10.3 mg/dL
same,K,"15 mg/kg, 9 h, dose level Low",4.4 meq/L
same,LDH,"15 mg/kg, 9 h, dose level Low",55.2 IU/L
same,Na,"15 mg/kg, 9 h, dose level Low",142.2 meq/L
same,PL,"15 mg/kg, 9 h, dose level Low",135.8 mg/dL
same,RALB,"15 mg/kg, 9 h, dose level Low",2.5 g/dL
same,TBIL,"15 mg/kg, 9 h, dose level Low",0.058 mg/dL
same,TC,"15 mg/kg, 9 h, dose level Low",77.4 mg/dL
same,TP,"15 mg/kg, 9 h, dose level Low",5.2 g/dL
same,gamma-GTP,"15 mg/kg, 9 h, dose level Low",1.2 IU/L
same,TERMINAL_BW,[1],195.1 g
same,TERMINAL_BW,"15 mg/kg, 24 h, dose level Low",205.2 g
same,APTT,[1],21.5 s
same,Bas,[1],0%
same,Eos,[1],0.8%
same,Fbg,[1],304 mg/dL
same,Hb,[1],13.6 g/dL
same,Ht,[1],40.8%
same,Lym,[1],88.2%
same,MCH,[1],21.2 pg
same,MCHC,[1],33.4%
same,MCV,[1],63.5 fL
same,Mono,[1],2.4%
same,Neu,[1],8%
same,PT,[1],16.2 s
same,Plat,[1],117.1 x10_4/uL
same,RBC,[1],643 x10_4/ul
same,Ret,[1],5.3%
same,WBC,[1],44.1 x10_2/uL
same,APTT,"15 mg/kg, 24 h, dose level Low",17.5 s
same,Fbg,"15 mg/kg, 24 h, dose level Low",286.4 mg/dL
same,Hb,"15 mg/kg, 24 h, dose level Low",12.9 g/dL
same,Ht,"15 mg/kg, 24 h, dose level Low",38.1%
same,Lym,"15 mg/kg, 24 h, dose level Low",85.4%
same,MCH,"15 mg/kg, 24 h, dose level Low",20.7 pg
same,MCHC,"15 mg/kg, 24 h, dose level Low",34%
same,MCV,"15 mg/kg, 24 h, dose level Low",60.9 fL
same,Mono,"15 mg/kg, 24 h, dose level Low",2%
same,Neu,"15 mg/kg, 24 h, dose level Low",11.2%
same,PT,"15 mg/kg, 24 h, dose level Low",14.1 s
same,Plat,"15 mg/kg, 24 h, dose level Low",116.3 x10_4/uL
same,RBC,"15 mg/kg, 24 h, dose level Low",625.2 x10_4/ul
same,Ret,"15 mg/kg, 24 h, dose level Low",6.8%
same,WBC,"15 mg/kg, 24 h, dose level Low",48.9 x10_2/uL
same,KIDNEY_L,[1],0.9 g
same,KIDNEY_R,[1],0.9 g
same,KIDNEY_TOTAL,[1],1.8 g
same,LIVER,[1],8.6 g
same,LIVER,"15 mg/kg, 24 h, dose level Low",9.1 g
same,ALP,[1],1751 IU/L
same,ALT,[1],45 IU/L
same,AST,[1],71 IU/L
same,BUN,[1],14.6 mg/dL
same,CRE,[1],0.2 mg/dL
same,Ca,[1],10.8 mg/dL
same,Cl,[1],104.8 meq/L
same,DBIL,[1],0.006 mg/dL
same,GLC,[1],179 mg/dL
same,IP,[1],8.4 mg/dL
same,K,[1],4.3 meq/L
same,LDH,[1],195.4 IU/L
same,Na,[1],142.4 meq/L
same,PL,[1],143.6 mg/dL
same,RALB,[1],3.1 g/dL
same,TBIL,[1],0.02 mg/dL
same,TC,[1],75 mg/dL
same,TP,[1],5.5 g/dL
same,gamma-GTP,[1],1.2 IU/L
same,ALP,"15 mg/kg, 24 h, dose level Low",1404.4 IU/L
same,ALT,"15 mg/kg, 24 h, dose level Low",40.2 IU/L
same,AST,"15 mg/kg, 24 h, dose level Low",71.4 IU/L
same,BUN,"15 mg/kg, 24 h, dose level Low",14.4 mg/dL
same,Ca,"15 mg/kg, 24 h, dose level Low",11.1 mg/dL
same,Cl,"15 mg/kg, 24 h, dose level Low",105.2 meq/L
same,DBIL,"15 mg/kg, 24 h, dose level Low",0.02 mg/dL
same,GLC,"15 mg/kg, 24 h, dose level Low",176.4 mg/dL
same,IP,"15 mg/kg, 24 h, dose level Low",8.1 mg/dL
same,K,"15 mg/kg, 24 h, dose level Low",4.5 meq/L
same,LDH,"15 mg/kg, 24 h, dose level Low",82 IU/L
same,Na,"15 mg/kg, 24 h, dose level Low",140.8 meq/L
same,PL,"15 mg/kg, 24 h, dose level Low",159.4 mg/dL
same,RALB,"15 mg/kg, 24 h, dose level Low",2.6 g/dL
same,TBIL,"15 mg/kg, 24 h, dose level Low",0.06 mg/dL
same,TC,"15 mg/kg, 24 h, dose level Low",87.6 mg/dL
same,TP,"15 mg/kg, 24 h, dose level Low",5.6 g/dL
same,gamma-GTP,"15 mg/kg, 24 h, dose level Low",1 IU/L
same,TERMINAL_BW,[2],190.4 g
same,APTT,[2],20 s
same,Bas,[2],0%
same,Eos,[2],0.8%
same,Fbg,[2],281.6 mg/dL
same,Hb,[2],13 g/dL
same,Ht,[2],38.9%
same,Lym,[2],78%
same,MCH,[2],20.6 pg
same,MCHC,[2],33.4%
same,MCV,[2],61.6 fL
same,Mono,[2],2.6%
same,Neu,[2],17.6%
same,PT,[2],13.8 s
same,Plat,[2],111.1 x10_4/uL
same,RBC,[2],631.6 x10_4/ul
same,Ret,[2],9.2%
same,WBC,[2],101.7 x10_2/uL
same,KIDNEY_L,[2],0.8 g
same,KIDNEY_R,[2],0.8 g
same,KIDNEY_TOTAL,[2],1.6 g
same,LIVER,[2],8.3 g
same,ALP,[2],1500.2 IU/L
same,ALT,[2],35.8 IU/L
same,AST,[2],72.6 IU/L
same,BUN,[2],10 mg/dL
same,CRE,[2],0.2 mg/dL
same,Ca,[2],11.1 mg/dL
same,Cl,[2],104.8 meq/L
same,DBIL,[2],0.018 mg/dL
same,GLC,[2],171.8 mg/dL
same,IP,[2],8.7 mg/dL
same,K,[2],4.4 meq/L
same,LDH,[2],72.6 IU/L
same,Na,[2],140.2 meq/L
same,PL,[2],160.4 mg/dL
same,RALB,[2],2.4 g/dL
same,TBIL,[2],0.068 mg/dL
same,TC,[2],86.6 mg/dL
same,TP,[2],5.3 g/dL
same,gamma-GTP,[2],1.4 IU/L
same,TERMINAL_BW,[3],187.5 g
same,APTT,[3],17.2 s
same,Bas,[3],0%
same,Eos,[3],0.6%
same,Fbg,[3],278.4 mg/dL
